This passage reports GI50 and TGI results from PubChem BioAssay (NCI).

Some test systems named below: SF-268 CNS; SW-620 colon; BT-549 breast; A549 NSCLC; SR leukemia; UACC-257 melanoma; HS 578T breast; A498 renal; HOP-62 NSCLC; KM12 colon.
Common to all, as to test: DTP human tumour cell line panel, 48 h

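Cells were grown in 96-well plates and exposed to each compound for 48 hours at five concentrations; endpoints were interpolated linearly between bracketing concentrations, or set to the highest concentration if not reached. Here, GI50 denotes the concentration required for 50% inhibition of growth. TGI: concentration producing complete growth inhibition.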

On to `CN(Cc1ccc(Cl)cc1)c1ccc(CO)c(Cl)c1`, for which the GI50 in the test on SF-268 CNS is 14.2 µM; in the test on SW-620 colon, 3.85 µM; with BT-549 breast, 5.31 µM; with A549 NSCLC, 3.9 µM; with SR leukemia, 13.1 µM; with UACC-257 melanoma it was 0.515 µM. Moreover, the GI50 in the test on HS 578T breast is 12.5 µM; in the test on A498 renal, 0.0464 µM; in the test on HOP-62 NSCLC, 5.75 µM; with KM12 colon, 13 µM. The concentration for total growth inhibition (TGI) worked out at 29.5 µM in the test on SF-268 CNS; 19.5 µM in the test on SW-620 colon; 19.9 µM in the test on BT-549 breast; 17.8 µM in the test on A549 NSCLC; 54.8 µM in the test with SR leukemia; 2.45 µM in the test with UACC-257 melanoma. In addition, the TGI came out at 39.8 µM in the test with HS 578T breast, 0.179 µM with A498 renal, 18.3 µM in the test with HOP-62 NSCLC and 27.2 µM in the test with KM12 colon.
As for `N#Cc1ncc(-c2ccc(C(F)(F)F)cc2)c(NCc2cc(C(F)(F)F)cc(C(F)(F)F)c2)n1`, the GI50 was 8.17 µM with SF-268 CNS; 3.13 µM in the test on SW-620 colon; 5.88 µM in the test on BT-549 breast; 3.11 µM with A549 NSCLC; 2.97 µM in the test on SR leukemia; 3.06 µM with UACC-257 melanoma. Further, the GI50 is 3.08 µM in the test with HS 578T breast, 2.08 µM with A498 renal, 4.73 µM with HOP-62 NSCLC and 3.17 µM with KM12 colon. Besides, the concentration for total growth inhibition (TGI) in the test with SF-268 CNS was above 100 µM; in the test on SW-620 colon, above 100 µM; in the test on BT-549 breast, above 100 µM; in the test with A549 NSCLC, 21.1 µM; with SR leukemia, 13.8 µM; in the test with UACC-257 melanoma, 9.92 µM. Moreover, the TGI was 59.8 µM in the test on HS 578T breast, 7.71 µM with A498 renal, 39.2 µM in the test on HOP-62 NSCLC and 10.1 µM in the test on KM12 colon.
For the molecule `N/C(=C\C(=O)n1nc(-c2ccccc2)cc1N)c1ccccc1`, the GI50 is 5.14 µM in the test with SF-268 CNS; 3.59 µM in the test with SW-620 colon; 2.56 µM in the test with BT-549 breast; 7.29 µM with A549 NSCLC; 1.59 µM with SR leukemia; 17.4 µM in the test on UACC-257 melanoma. Further, the GI50 is 2.41 µM with HS 578T breast, 2.77 µM in the test on A498 renal, 8.3 µM in the test with HOP-62 NSCLC and 2.9 µM with KM12 colon. In addition, the TGI with SF-268 CNS was 31.7 µM; with SW-620 colon, 17.2 µM; in the test with BT-549 breast, 27.4 µM; with A549 NSCLC it was 81.3 µM; in the test with SR leukemia, 7.38 µM; in the test with UACC-257 melanoma it was 70.3 µM. For the same molecule, the TGI was found to be 13 µM in the test with HS 578T breast, 12.5 µM in the test on A498 renal, 32.4 µM with HOP-62 NSCLC and 14.1 µM in the test on KM12 colon.
As to `CCOC(=O)/C(=N\OC)C(O)C(F)(F)F` (stereo not given), the TGI with SF-268 CNS, in the test on SW-620 colon, with BT-549 breast, with A549 NSCLC, with SR leukemia and in the test with UACC-257 melanoma was above 100 µM each time. For the same molecule, the TGI in the test with HS 578T breast, in the test with A498 renal, in the test on HOP-62 NSCLC and with KM12 colon was above 100 µM throughout.
With `c1ccc2c(c1)sc1c3cnccc3ccc21`, the concentration for total growth inhibition (TGI) with SF-268 CNS, with SW-620 colon, in the test with BT-549 breast, in the test with A549 NSCLC, in the test on SR leukemia and with UACC-257 melanoma was above 100 µM each time. In addition, the TGI with HS 578T breast, with A498 renal, in the test with HOP-62 NSCLC and with KM12 colon was above 100 µM each time.
Consider `COC(=O)C1=C(C)NC(C)=C(C(=O)OC)C1/C=C(\Cl)c1ccc(Cl)c(Cl)c1`, for which the GI50 is 13.1 µM in the test on SF-268 CNS; 12.2 µM in the test with SW-620 colon; 16.6 µM with BT-549 breast; 11.9 µM with A549 NSCLC; 3.3 µM in the test on SR leukemia; 18 µM in the test on UACC-257 melanoma. The GI50 was 12.2 µM in the test on HS 578T breast, 11.4 µM in the test with A498 renal, 16.3 µM in the test on HOP-62 NSCLC and 15.4 µM with KM12 colon. In addition, the TGI with SF-268 CNS turned out to be 28.4 µM; in the test with SW-620 colon it was 28.7 µM; in the test on BT-549 breast it was 32.2 µM; in the test on A549 NSCLC, 24.4 µM; with SR leukemia, 22.4 µM; with UACC-257 melanoma, 36.1 µM. Moreover, the TGI turned out to be 33.4 µM in the test on HS 578T breast, 24.1 µM in the test with A498 renal, 29.8 µM with HOP-62 NSCLC and 31.5 µM in the test with KM12 colon.
For the molecule `COc1cc(-n2cc(-c3ccc(F)cc3)nc2SCc2ccccc2)cc(OC)c1OC`, the GI50 with SF-268 CNS, in the test with SW-620 colon, in the test on BT-549 breast, in the test on A549 NSCLC, in the test with SR leukemia and with UACC-257 melanoma was above 100 µM in each case. For the same molecule, the GI50 with HS 578T breast was above 100 µM; in the test on A498 renal, 37.4 µM; in the test on HOP-62 NSCLC, above 100 µM; in the test with KM12 colon, above 100 µM. Moreover, the TGI in the test on SF-268 CNS, in the test on SW-620 colon, in the test on BT-549 breast, with A549 NSCLC, in the test on SR leukemia and with UACC-257 melanoma was above 100 µM each time. Besides, the TGI in the test with HS 578T breast, in the test on A498 renal, in the test on HOP-62 NSCLC and with KM12 colon was above 100 µM throughout.
In the case of `Oc1ccc(CN2CCC(N3CCOCC3)CC2)c2cccnc12`, the GI50 in the test with SF-268 CNS is 16.3 µM; in the test on SW-620 colon, 60 µM; with BT-549 breast, 31.9 µM; in the test with A549 NSCLC it was above 100 µM; with SR leukemia it was 34 µM; in the test with UACC-257 melanoma it was 32.3 µM. In addition, the GI50 was 62.1 µM with HS 578T breast, above 100 µM in the test with A498 renal, 42.7 µM with HOP-62 NSCLC and 46.9 µM with KM12 colon. The total growth inhibition concentration (TGI) in the test with SF-268 CNS was above 100 µM; in the test on SW-620 colon it was above 100 µM; with BT-549 breast it was above 100 µM; with A549 NSCLC, above 100 µM; in the test with SR leukemia, above 100 µM; in the test on UACC-257 melanoma, 76.5 µM. Besides, the TGI in the test on HS 578T breast, with A498 renal, with HOP-62 NSCLC and in the test on KM12 colon was above 100 µM throughout.

As a reminder, the GI50 is the concentration giving 50% growth inhibition. In general, TGI refers to the concentration giving total growth inhibition.
